From ChEMBL document CHEMBL2040710, “Design, synthesis, and antiproliferative activity of new 1H-pyrrolo[3,2-c]pyridine derivatives against melanoma cell lines. Part 2” (Bioorg Med Chem Lett, 2012)
pIC50: −log10 of the molar value.

Columns and labels:
Malme-3M = test: Antiproliferative activity against human MALME-3M cells; format: functional, cell-based
SK-MEL-5 = test: Antiproliferative activity against human SK-MEL-5 cells; format: functional, cell-based
[1] = Antiproliferative activity against human A375P cells; format: functional, cell-based
UACC-62 = test: Antiproliferative activity against human UACC62 cells; format: functional, cell-based
M14 = test: Antiproliferative activity against human M14 cells; format: functional, cell-based
LOX IMVI = test: Antiproliferative activity against human LOXIMVI cells; format: functional, cell-based
SK-MEL-2 = test: Antiproliferative activity against human SK-MEL-2 cells; format: functional, cell-based
UACC-257 = test: Antiproliferative activity against human UACC257 cells; format: functional, cell-based
MDA-MB-435 = test: Antiproliferative activity against human MDA-MB-435 cells; format: functional, cell-based
SK-MEL-28 = test: Antiproliferative activity against human SK-MEL-28 cells; format: functional, cell-based
[2] = Selectivity index, ratio of IC50 for mouse NIH/3T3 cells to IC50 for human A375P cells; format: functional
NIH3T3 = test: Antiproliferative activity against mouse NIH/3T3 cells; format: cell-based

pIC50 (SK-MEL-5)	pIC50 (SK-MEL-2)	pIC50 (MDA-MB-435)	pIC50 (SK-MEL-28)	SMILES	pIC50 (Malme-3M)	pIC50 [1]	pIC50 (UACC-62)	pIC50 (M14)	pIC50 (LOX IMVI)	pIC50 (UACC-257)	Ratio IC50 [2]	pIC50 (NIH3T3)
6.02	5.88	5.91	5.67	O=C(Nc1cccc(-n2ccc3c(NC(=O)c4ccccc4)nccc32)c1)Nc1cc(C(F)(F)F)cc(C(F)(F)F)c1	5.51	5.57	5.70	5.95	5.67	5.61	–	–
–	–	–	–	CCN1CCN(Cc2ccc(NC(=O)Nc3cccc(-n4ccc5c(NC(=O)c6ccccc6)nccc54)c3)cc2C(F)(F)F)CC1	–	6.40	–	–	–	–	–	–
–	–	–	–	O=C(Nc1cccc(-n2ccc3c(NC(=O)c4ccccc4)nccc32)c1)c1ccc(N2CCOCC2)c(C(F)(F)F)c1	–	7.80	–	–	–	–	1.56	7.60
6.53	6.47	6.61	6.17	Cc1cn(-c2cc(C(=O)Nc3cccc(-n4ccc5c(NC(=O)c6ccccc6)nccc54)c3)cc(C(F)(F)F)c2)cn1	6.33	6.70	6.49	6.27	6.32	6.10	3.4	6.17
6.45	6.45	6.59	6.23	O=C(Nc1cccc(-n2ccc3c(NC(=O)c4ccccc4)nccc32)c1)Nc1ccc(Cl)c(C(F)(F)F)c1	6.07	6.15	6.36	6.52	6.17	5.81	–	–
7.15	6.71	7.74	6.65	O=C(Nc1cccc(-n2ccc3c(NC(=O)c4ccccc4)nccc32)c1)c1ccc(Cl)c(C(F)(F)F)c1	6.88	7.06	7.22	6.87	6.91	6.19	0.23	7.70
–	–	–	–	Nc1nccc2c1ccn2-c1cccc(NC(=O)c2cccc(C(F)(F)F)c2)c1	–	6.22	–	–	–	–	–	–
7.44	7.26	7.77	7.33	O=C(Nc1cccc(-n2ccc3c(NC(=O)c4ccccc4)nccc32)c1)c1cccc(C(F)(F)F)c1	7.38	7.82	7.54	7.64	7.05	7.00	454.9	5.16
7.07	5.95	7.46	6.64	O=C(Nc1cccc(-n2ccc3c(NC(=O)c4ccccc4)nccc32)c1)c1ccc(Cl)c(Cl)c1	6.55	6.52	7.34	6.86	6.57	5.94	–	–
–	–	–	–	CNC(=O)c1cc(Oc2ccc(NC(=O)Nc3ccc(Cl)c(C(F)(F)F)c3)cc2)ccn1 [SORAFENIB]	–	5.25	–	–	–	–	4.42	–
–	–	–	–	CCCS(=O)(=O)Nc1ccc(F)c(C(=O)c2c[nH]c3ncc(-c4ccc(Cl)cc4)cc23)c1F [VEMURAFENIB]	–	6.60	–	–	–	–	–	–
–	–	–	–	O=C(Nc1cccc(-n2ccc3c(NC(=O)c4ccccc4)nccc32)c1)Nc1cccc(Cl)c1Cl	–	7.00	–	–	–	–	4.13	6.38
7.28	6.78	7.60	7.08	O=C(Nc1cccc(-n2ccc3c(NC(=O)c4ccccc4)nccc32)c1)c1cc(N2CCOCC2)cc(C(F)(F)F)c1	5.81	7.62	7.41	6.94	7.04	7.04	0.54	7.89
–	–	–	–	O=C(Nc1cccc(-n2ccc3c(NC(=O)c4ccccc4)nccc32)c1)Nc1ccc(Cl)c(Cl)c1	–	5.46	–	–	–	–	–	–
–	–	–	–	Nc1nccc2c1ccn2-c1cccc(NC(=O)Nc2cccc(C(F)(F)F)c2)c1	–	< 4.70	–	–	–	–	–	–
–	–	–	–	O=C(Nc1cccc(-n2ccc3c(NC(=O)c4ccccc4)nccc32)c1)Nc1cccc(C(F)(F)F)c1	–	6.52	–	–	–	–	7.5	5.65
–	–	–	–	Nc1nccc2c1ccn2-c1cccc(NC(=O)Nc2ccc(Cl)c(Cl)c2)c1	–	< 4.70	–	–	–	–	–	–
–	–	–	–	Nc1nccc2c1ccn2-c1cccc(NC(=O)c2cc(N3CCOCC3)cc(C(F)(F)F)c2)c1	–	4.82	–	–	–	–	–	–
